Values quoted from earlier work as cited in US20070060557A1, “Superoxide dismutase mimics for the treatment of optic nerve and retinal damage” (priority 2003, published 2007).

Experiments:
[1] = system: light-induced retinal damage in albino rats; settings: albino rats (Wang et al. 1995)
[2] = system: rat ocular ischemia-reperfusion model; settings: intravitreal injections (Rios et al. 1999)

Compound | light-induced retinal damage [1] | functional protection [2] [%]
CC1(C)CC(O)CC(C)(C)N1[O] [4-hydroxy-2,2,6,6-tetramethylpiperidine-1-oxyl] | inhibited light-induced retinal damage | 
CNC(=S)NC [dimethylthiourea] |  | 40
